What was measured:
Assay in all cases: glycan microarray on nitrocellulose, anti-His detection
CBM53-3 = target: T1, CBM53-3 (Hordeum vulgare, UniProt G1FUP7); conditions: protein 30 μg/mL in PBS with 5% milk powder; printed oligosaccharide; strong binding
T1 construct: third CBM53 domain of HvSSIIIa only, C-terminal His-tag, vector pET151, E. coli; borders only in supplement

HvGBSSI = target: T2, HvGBSSI (Hordeum vulgare, UniProt P09842); conditions: protein 30 μg/mL in PBS with 5% milk powder; printed oligosaccharide; weaker binding
T2 construct: gene WAXY; without predicted chloroplast transit peptide, N-terminal His-tag, codon-optimised, E. coli
T2 sequence (P09842 71-603): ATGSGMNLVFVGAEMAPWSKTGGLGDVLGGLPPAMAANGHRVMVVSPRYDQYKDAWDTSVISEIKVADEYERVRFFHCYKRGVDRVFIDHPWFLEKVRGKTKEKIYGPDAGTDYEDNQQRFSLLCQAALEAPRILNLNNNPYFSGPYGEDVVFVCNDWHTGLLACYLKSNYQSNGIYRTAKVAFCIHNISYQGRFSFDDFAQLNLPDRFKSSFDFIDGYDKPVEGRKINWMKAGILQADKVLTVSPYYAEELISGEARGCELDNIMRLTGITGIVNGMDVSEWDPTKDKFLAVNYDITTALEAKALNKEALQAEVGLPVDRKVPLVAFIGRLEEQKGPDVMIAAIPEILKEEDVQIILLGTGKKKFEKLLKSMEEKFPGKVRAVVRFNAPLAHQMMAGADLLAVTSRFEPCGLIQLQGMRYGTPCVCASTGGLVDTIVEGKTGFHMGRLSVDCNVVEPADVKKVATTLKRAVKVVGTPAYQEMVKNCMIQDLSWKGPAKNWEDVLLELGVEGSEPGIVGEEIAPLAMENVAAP

HvSSIV = target: T3, HvSSIV (Hordeum vulgare, UniProt F2CUZ5); conditions: protein 30 μg/mL in PBS with 5% milk powder; printed oligosaccharide; strong binding
T3 construct: without predicted chloroplast transit peptide, C-terminal His-tag, codon-optimised, E. coli
T3 sequence (F2CUZ5 49-914): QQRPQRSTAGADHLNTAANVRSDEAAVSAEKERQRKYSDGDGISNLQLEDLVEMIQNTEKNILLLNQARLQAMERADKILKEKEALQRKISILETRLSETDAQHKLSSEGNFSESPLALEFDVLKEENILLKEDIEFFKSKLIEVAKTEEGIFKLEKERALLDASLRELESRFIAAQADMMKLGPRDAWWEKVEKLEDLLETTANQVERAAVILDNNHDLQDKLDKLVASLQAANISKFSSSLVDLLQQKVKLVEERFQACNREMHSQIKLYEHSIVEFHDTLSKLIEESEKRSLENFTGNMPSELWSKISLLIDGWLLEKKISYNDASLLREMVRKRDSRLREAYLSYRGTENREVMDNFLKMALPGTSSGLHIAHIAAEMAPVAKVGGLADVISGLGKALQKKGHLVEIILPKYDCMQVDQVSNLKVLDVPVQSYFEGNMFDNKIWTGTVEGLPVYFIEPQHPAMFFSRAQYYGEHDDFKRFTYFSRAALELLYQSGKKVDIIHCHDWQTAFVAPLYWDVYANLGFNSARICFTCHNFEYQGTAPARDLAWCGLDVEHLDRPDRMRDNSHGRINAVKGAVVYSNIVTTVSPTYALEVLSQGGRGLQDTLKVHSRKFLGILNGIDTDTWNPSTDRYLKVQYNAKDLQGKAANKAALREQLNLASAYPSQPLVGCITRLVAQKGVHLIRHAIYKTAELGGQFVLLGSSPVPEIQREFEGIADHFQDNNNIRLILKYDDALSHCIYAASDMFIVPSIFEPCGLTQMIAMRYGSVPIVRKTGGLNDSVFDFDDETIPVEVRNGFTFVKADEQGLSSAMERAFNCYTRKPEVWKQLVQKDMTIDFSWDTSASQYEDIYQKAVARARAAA

HvSSIIa = target: T4, HvSSIIa (Hordeum vulgare, UniProt Q8H1Y8); conditions: protein 30 μg/mL in PBS with 5% milk powder; printed oligosaccharide; strong binding
T4 construct: without predicted chloroplast transit peptide, N-terminal His-tag, codon-optimised, E. coli
T4 sequence (Q8H1Y8 61-802): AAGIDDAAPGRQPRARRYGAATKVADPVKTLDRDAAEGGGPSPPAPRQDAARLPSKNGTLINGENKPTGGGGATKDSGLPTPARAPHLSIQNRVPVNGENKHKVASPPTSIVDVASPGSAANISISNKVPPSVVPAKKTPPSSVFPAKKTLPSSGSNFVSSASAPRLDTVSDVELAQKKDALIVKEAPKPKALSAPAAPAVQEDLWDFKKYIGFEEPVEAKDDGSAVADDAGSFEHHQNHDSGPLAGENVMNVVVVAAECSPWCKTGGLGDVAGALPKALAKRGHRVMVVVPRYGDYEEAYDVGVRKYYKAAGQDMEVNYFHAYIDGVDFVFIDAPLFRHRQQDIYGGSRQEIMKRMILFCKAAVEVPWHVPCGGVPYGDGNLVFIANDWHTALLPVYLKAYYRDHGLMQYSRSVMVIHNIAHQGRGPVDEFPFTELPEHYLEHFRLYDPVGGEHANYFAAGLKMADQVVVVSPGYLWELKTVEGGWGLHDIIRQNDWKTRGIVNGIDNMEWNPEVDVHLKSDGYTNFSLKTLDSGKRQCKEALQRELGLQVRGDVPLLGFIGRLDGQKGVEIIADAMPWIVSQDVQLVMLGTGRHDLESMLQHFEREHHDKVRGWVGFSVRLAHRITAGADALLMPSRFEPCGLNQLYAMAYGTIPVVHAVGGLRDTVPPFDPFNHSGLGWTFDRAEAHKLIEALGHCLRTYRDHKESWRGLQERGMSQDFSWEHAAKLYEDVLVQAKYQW

T1 sequence (G1FUP7 entry or part of it): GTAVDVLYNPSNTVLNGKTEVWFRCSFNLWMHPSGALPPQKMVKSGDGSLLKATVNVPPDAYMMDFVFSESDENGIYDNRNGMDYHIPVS

In the case of `O=P(O)(O)O[C@H]1[C@H](O[C@H]2O[C@H](CO)[C@@H](O)[C@H](O)[C@H]2O)[C@@H](CO)OC(O)[C@@H]1O` (stereo partly shown) [3-phosphomaltose], the “glycan microarray on nitrocellulose, anti-His detection” value (“glycan microarray on nitrocellulose” for short) (CBM53-3) is reported as “SSIIa, CBM53-3, and SSIV all showed strong binding to 3-phosphomaltose”, the “glycan microarray on nitrocellulose” value (HvGBSSI) is reported as “while GBSSI showed weaker binding and binding was non-detectable for SSI” and the “glycan microarray on nitrocellulose” value (HvSSIV) is reported as “SSIIa, CBM53-3, and SSIV all showed strong binding to 3-phosphomaltose”. The “glycan microarray on nitrocellulose” value (HvSSIIa) was “SSIIa, CBM53-3, and SSIV all showed strong binding to 3-phosphomaltose”.
